In ChEMBL document CHEMBL1201862, “PubChem BioAssay data set” (2004):
Activity calls are given as the source filed them. For most assays here, no stated cut-off is given here; in the data, actives have a measured EC50 and inactives only a lower limit.

Assays:
Streptokinase A = molecular target: T1, Streptokinase A (Streptococcus pyogenes serotype M1, UniProt P10520); assay: viability-normalized secreted streptokinase activity reduction – plasminogen activation absorbance, OD405, dose response (AID 1914); format: functional, Streptococcus pyogenes M1 GAS;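 further: secreted streptokinase activity via plasminogen activation per viability signal from cell pellet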
T1 sequence (P10520 whole entry): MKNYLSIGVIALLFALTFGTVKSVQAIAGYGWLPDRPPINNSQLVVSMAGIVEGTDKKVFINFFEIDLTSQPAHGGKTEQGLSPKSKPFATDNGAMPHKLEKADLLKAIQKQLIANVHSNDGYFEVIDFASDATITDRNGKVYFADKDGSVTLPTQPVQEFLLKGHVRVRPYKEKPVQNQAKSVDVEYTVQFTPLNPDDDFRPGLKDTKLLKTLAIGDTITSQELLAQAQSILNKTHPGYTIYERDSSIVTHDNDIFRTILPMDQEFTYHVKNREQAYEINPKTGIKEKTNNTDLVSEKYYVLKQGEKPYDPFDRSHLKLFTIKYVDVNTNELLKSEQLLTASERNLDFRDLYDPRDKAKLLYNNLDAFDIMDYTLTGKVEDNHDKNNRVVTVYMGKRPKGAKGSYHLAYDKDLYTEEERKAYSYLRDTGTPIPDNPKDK

BJ [1] = assay: BJ-TERT fibroblast viability loss – cell-based, RAS-independent, luminescence, dose response (AID 1933); format: functional; details: Homo sapiens
[2] = molecular target: T2, Heat shock factor protein 1 (Mus musculus, UniProt P38532); assay: enhancement of HSF1-driven luciferase signal – cell-based, NIH3T3, luminescence, dose retest, confirmation (AID 435004); format: functional;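 further: stress induced by proteasome inhibitor MG132 added 30 min after compound; luciferase reporter driven by HSF1 response element in NIH3T3 cells; actives raise luminescence as potentiators of the MG132 stress response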
T2 sequence (P38532 whole entry): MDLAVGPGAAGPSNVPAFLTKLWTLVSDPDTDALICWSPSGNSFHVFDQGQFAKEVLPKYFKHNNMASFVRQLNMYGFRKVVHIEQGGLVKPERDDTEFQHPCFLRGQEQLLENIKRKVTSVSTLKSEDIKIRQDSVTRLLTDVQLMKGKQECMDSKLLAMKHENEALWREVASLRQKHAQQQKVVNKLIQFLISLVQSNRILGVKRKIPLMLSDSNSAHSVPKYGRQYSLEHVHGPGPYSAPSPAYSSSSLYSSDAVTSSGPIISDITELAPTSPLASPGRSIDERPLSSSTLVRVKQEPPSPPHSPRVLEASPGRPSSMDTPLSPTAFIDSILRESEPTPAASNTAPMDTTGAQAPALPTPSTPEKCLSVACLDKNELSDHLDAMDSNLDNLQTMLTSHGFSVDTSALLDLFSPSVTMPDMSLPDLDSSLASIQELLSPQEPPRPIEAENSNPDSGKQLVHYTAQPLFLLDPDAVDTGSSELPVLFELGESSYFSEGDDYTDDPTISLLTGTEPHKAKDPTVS

[3] = tested on: Streptococcus sp. 'group A'; assay: Streptococcus pyogenes SK(-)GAS viability under kanamycin – luminescence, BacTiterGlo, confirmation, counter-screen for streptokinase expression inhibitor project, dose response (AID 1900); format: functional, organism-based
[4] = molecular target: T3, High affinity choline transporter 1 (Homo sapiens, UniProt Q9GZV3); assay: human choline transporter blockers, potency – cell-based, 5-point CRC, membrane potential dye, dose response (AID 504840); format: functional
T3 sequence (Q9GZV3 whole entry): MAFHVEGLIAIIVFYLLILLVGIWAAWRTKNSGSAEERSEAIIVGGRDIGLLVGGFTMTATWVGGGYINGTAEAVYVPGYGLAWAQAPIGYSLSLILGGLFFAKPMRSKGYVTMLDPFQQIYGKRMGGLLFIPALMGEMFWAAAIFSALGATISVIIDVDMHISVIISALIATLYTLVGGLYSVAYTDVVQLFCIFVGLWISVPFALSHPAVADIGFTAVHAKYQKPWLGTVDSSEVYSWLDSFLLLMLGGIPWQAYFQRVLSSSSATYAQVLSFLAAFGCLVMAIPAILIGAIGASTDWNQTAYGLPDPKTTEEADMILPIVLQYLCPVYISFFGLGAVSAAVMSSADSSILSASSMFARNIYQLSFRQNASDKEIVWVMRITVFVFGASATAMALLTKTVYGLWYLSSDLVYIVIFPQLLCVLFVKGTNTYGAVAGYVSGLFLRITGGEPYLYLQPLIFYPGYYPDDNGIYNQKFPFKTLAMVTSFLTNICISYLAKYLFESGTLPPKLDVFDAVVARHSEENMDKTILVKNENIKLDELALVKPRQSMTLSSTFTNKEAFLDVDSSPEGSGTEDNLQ

CHO = CHO cell viability loss, potency – luminescence, cytotoxicity control for TLR9-MyD88 binding inhibitor project, dose response (AID 588339); format: functional, cell-based, hamster; details: Cricetulus griseus;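 further: CHO cells stably coexpressing TLR9 and MyD88 fusions from primary screen; compound exposure lasted 48 hours before viability readout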
BJ [5] = assay: cells; format: functional, cell-based; details: Homo sapiens
[6] = Fluorescence-based cell-based high throughput dose response assay for inhibitors of the interaction of nucleotide-binding oligomerization domain containing 2 (NOD2) and the receptor-interacting serine-threonine kinase 2 (RIPK2).; format: functional; details: Homo sapiens
BJ [7] = assay: BJ-TERT-LT-ST fibroblast viability loss – cell-based, RAS-independent, luminescence, dose response (AID 1935); format: functional; details: Homo sapiens;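 further: BJ fibroblasts immortalized with TERT plus LT and ST oncogenes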
[8] = DRD fibroblast viability loss – cell-based, non-viral oncogenic, luminescence, dose response (AID 1934); format: functional; details: Homo sapiens
[9] = Trypanosoma cruzi growth suppression in host cells – NIH3T3 host cells, beta-gal luminescence, confirmation (AID 2044); format: functional, cell-based;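 further: intracellular parasites grown in NIH/3T3 mouse fibroblasts as host cells; luminescent beta-galactosidase reporter signal from transgenic T. cruzi replicating inside host cells; inhibitors lower the luminescence signal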
Large T antigen = Large T antigen (Simian virus 40, UniProt P03070); format: functional, Betapolyomavirus macacae;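 further: Confirmatory-stage PubChem screen for compounds that inhibit SV40 T antigen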
Sequence of Large T antigen (P03070 whole entry): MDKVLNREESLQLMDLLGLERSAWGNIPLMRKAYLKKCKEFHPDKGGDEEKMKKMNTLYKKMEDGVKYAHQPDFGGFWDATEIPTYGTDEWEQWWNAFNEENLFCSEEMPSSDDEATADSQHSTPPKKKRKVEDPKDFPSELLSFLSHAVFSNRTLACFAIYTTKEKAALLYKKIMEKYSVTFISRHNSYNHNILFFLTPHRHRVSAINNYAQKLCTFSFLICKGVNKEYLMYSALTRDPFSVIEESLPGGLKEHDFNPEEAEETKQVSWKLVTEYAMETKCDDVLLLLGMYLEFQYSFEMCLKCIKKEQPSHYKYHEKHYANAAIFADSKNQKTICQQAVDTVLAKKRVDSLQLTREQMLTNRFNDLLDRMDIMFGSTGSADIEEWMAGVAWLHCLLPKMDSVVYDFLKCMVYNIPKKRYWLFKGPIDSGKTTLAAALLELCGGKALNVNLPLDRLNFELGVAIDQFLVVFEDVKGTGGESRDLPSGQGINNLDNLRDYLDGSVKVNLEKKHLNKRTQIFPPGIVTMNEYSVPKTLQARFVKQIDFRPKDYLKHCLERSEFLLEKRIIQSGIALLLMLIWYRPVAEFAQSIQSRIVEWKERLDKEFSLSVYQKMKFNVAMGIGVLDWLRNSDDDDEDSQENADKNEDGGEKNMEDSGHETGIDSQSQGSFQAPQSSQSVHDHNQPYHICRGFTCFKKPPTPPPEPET

[10] = molecular target: T3, High affinity choline transporter 1; assay: human choline transporter blockers, potency – cell-based, 10-point CRC, membrane potential dye, dose response (AID 588401); format: functional;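 further: membrane potential dye fluorescence of choline-evoked depolarization via CHT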
[11] = NIH3T3 cell viability loss – ATP luminescence, mouse fibroblasts, counter-screen, dose response (AID 2010); format: functional, cell-based;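 further: cells exposed to compound for about 90 hours before reading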
Beta Lactamase = Beta Lactamase (Pseudomonas aeruginosa, UniProt Q932Y6); assay: BLA reporter interference, concentration series – BLA reporter cells, FRET fluorescence, artefact control for TLR9-MyD88 binding inhibitor project, dose response (AID 588341); format: cell-based;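 further: cell based assay in CHO-K1 cells stably expressing beta-lactamase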
Sequence of Beta Lactamase (Q932Y6 whole entry): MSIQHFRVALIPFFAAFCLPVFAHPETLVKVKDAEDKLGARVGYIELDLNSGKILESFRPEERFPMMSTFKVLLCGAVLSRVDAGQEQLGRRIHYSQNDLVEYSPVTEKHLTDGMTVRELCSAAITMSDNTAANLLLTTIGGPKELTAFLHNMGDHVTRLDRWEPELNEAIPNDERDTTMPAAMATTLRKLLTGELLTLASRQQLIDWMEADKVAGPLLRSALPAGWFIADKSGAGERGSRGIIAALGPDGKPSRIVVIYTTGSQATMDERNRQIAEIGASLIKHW

Streptococcus = assay: GAS UMAA2166 growth inhibition – luminescence, BacTiterGlo, counter-screen for streptokinase expression inhibitor project, dose response (AID 1915); format: functional, organism-based;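 further: potency for reduction of bacterial viability or growth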
Beta-galactosidase = Beta-galactosidase (Escherichia coli, UniProt Q8VNN2); assay: PubChem AID 485352; format: functional
Sequence of Beta-galactosidase (Q8VNN2 whole entry): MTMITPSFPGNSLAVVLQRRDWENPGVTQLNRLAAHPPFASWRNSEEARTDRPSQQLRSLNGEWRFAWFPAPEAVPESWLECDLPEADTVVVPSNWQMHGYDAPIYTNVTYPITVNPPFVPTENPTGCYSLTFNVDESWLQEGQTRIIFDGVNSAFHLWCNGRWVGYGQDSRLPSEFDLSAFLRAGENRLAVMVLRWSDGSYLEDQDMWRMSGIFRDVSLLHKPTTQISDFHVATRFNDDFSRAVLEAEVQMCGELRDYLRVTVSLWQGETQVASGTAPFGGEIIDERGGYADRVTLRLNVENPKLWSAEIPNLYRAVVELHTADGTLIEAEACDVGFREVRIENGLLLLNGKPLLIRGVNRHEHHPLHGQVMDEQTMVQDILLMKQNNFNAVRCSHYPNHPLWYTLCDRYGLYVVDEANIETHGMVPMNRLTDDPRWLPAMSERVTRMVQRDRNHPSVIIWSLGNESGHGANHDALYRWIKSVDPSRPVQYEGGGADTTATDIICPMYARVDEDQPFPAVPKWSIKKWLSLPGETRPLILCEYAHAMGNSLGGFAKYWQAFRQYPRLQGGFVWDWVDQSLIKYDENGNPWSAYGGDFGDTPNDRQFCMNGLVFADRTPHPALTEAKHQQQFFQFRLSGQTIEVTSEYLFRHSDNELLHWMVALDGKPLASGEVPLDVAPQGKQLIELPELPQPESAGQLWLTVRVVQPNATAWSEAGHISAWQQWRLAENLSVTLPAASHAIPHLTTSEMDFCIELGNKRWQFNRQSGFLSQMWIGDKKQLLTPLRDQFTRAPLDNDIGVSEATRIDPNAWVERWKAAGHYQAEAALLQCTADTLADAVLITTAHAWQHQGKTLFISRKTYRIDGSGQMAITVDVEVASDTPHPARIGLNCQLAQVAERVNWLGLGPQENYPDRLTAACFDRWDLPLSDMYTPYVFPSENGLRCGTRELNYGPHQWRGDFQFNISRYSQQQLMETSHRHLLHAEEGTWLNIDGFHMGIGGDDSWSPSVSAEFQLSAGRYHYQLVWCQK

[12] = molecular target: T4, Type-1 angiotensin II receptor (Homo sapiens, UniProt P30556); assay: antagonism of angiotensin II type 1 receptor – cell-based, uHTS hits, selectivity assay for APJ receptor antagonist project, dose response (AID 463214); format: functional;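 further: antagonist potency against angiotensin II stimulated AT1 response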
T4 sequence (P30556 whole entry): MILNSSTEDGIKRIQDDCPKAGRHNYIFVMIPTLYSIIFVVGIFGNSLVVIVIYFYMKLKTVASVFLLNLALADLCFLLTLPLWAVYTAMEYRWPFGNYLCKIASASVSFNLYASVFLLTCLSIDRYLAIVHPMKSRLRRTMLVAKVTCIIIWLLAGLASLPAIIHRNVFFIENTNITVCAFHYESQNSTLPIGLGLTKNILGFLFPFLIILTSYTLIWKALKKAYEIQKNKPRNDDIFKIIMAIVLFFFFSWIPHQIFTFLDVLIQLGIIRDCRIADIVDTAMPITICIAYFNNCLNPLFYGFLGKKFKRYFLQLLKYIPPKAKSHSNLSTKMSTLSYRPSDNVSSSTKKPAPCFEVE

CCn1nc(C)cc1-c1nnc(Sc2ncc([N+](=O)[O-])s2)n1C
EC50 (Streptokinase A): > 150 µM (not active)
EC50 (BJ [1]): 2.09 µM (active)
EC50 [2]: 2.9 µM (inconclusive)
EC50 [3]: 7.07 µM (active)
IC50 [4]: 8.13 µM (active)
IC50 (CHO): 1.08 µM (active)
EC50 (BJ [5]): 7.27 µM (active)
IC50 [6]: 0.802 µM (active)
EC50 (BJ [7]): 3.46 µM (inconclusive)
EC50 [8]: 5.37 µM (active)
EC50 [9]: 0.759 µM (active)
IC50 (Large T antigen): 17.6 µM (active)
IC50 [10]: 3.76 µM (active)
EC50 [11]: 3.07 µM (active)
IC50 (Beta Lactamase): 46 µM (inactive)
EC50 (Streptococcus): 12.4 µM (active)
EC50 (Beta-galactosidase): > 40 µM (inactive)
IC50 [12]: 5.36 µM (active)
